# Like-named read-outs stand apart in the source and are kept apart here.
# Assays:
# [1] = test system: Botrytis cinerea; test: Activity against the grey mold Botrytis cinerea in the microtiterplate test (Botrci); type: cell-based; conditions: solo, MTP, 405 nm, 7 days after inoculation
# [2] = test system: Pyricularia oryzae; type: cell-based; conditions: Pyrior, solo, MTP, 405 nm, 7 days after inoculation
SMILES,Observed efficacy ([1]; 0.25 ppm) [%],Observed efficacy ([2]; 1 ppm) [%],Observed efficacy ([1]; 1 ppm) [%],Observed efficacy ([2]; 4 ppm) [%]
"CC1COC(Cn2cncn2)(c2ccc(Oc3ccc(Cl)cc3)cc2Cl)O1 (stereo not shown) [Difenoconazol, 1-[2-[4-(4-chlorophenoxy)-2-chlorophenyl]-4-methyl-1,3-dioxolan-2-ylmethyl]-1H-1,2,4-triazole]",30,15,,
"CC1(C)CC/C(=C\c2ccc(Cl)cc2)C1(O)Cn1cncn1 (racemic) [Triticonazol, (±) E-5-(4-chlorobenzylidene)-2,2-dimethyl-1-(1H-1,2,4-triazol-1-ylmethyl)cyclopentanol]",,,55,35

# — patent US8293680B2, “Fungicidal mixtures of triticonazole and difenoconazole” (BASF SE, priority 2007, dated 2012)
